Laboratory results reported in ChEMBL document CHEMBL4808172, “Structure-Activity Relationship of Heterocyclic P2Y14 Receptor Antagonists: Removal of the Zwitterionic Character with Piperidine Bioisosteres” (J Med Chem, 2021).
“And” between values parts separate entries of the source, which are not always exact repeats. Equal entries are not always repeated. The source made the active and inactive calls. The rule behind the calls is not given here.

Columns and labels:
[1] = Toxicity in mouse at 10 umol/kg, ip; conditions: in vivo, dose 10 µmol/kg
[2] = Microsomal stability in mouse liver microsomes assessed as half life; assay type: ADME, Microsome
[3] = Stability of compound in stimulated gastric fluid assessed as half life; assay type: ADME; conditions: simulated gi fluid
[4] = Clearance in Wistar rat at 10 mg/kg, ip measured upto 24 hrs by HPLC-MS/MS method; assay type: ADME, organism-based; conditions: in vivo
[5] = Clearance in Wistar rat at 1 mg/kg, ip measured upto 24 hrs by HPLC-MS/MS method; assay type: ADME, organism-based; conditions: in vivo
[6] = Clearance in Wistar rat at 3 mg/kg, ip measured upto 24 hrs by HPLC-MS/MS method; assay type: ADME, organism-based; conditions: in vivo
Translocator protein = Translocator protein (Homo sapiens, UniProt P30536); test: Binding affinity to TSPO (unknown origin)
Sequence of Translocator protein (P30536 whole entry): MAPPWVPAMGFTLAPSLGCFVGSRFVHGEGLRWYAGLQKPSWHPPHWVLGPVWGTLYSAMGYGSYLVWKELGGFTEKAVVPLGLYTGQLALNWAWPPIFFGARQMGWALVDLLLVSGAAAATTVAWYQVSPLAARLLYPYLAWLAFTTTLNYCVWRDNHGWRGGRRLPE

[7] = Elimination rate constant in Wistar rat at 1 mg/kg, ip measured upto 24 hrs by HPLC-MS/MS method; assay type: ADME, organism-based; conditions: in vivo
[8] = Bioavailability in Wistar rat at 10 mg/kg, ip measured upto 24 hrs by HPLC-MS/MS method; assay type: ADME, organism-based; conditions: in vivo
[9] = Elimination rate constant in Wistar rat at 0.5 mg/kg, iv measured upto 24 hrs by HPLC-MS/MS method; assay type: ADME, organism-based; conditions: in vivo
Mus musculus [10] = test: Reversal of CCI-induced mechano-allodynia in mouse model of neuropathic pain at 10 umol/kg, ip measured after 3 to 5 hrs; assay type: functional, organism-based; conditions: dose 10.0 µmol/kg, time 3-5 hrs
[11] = Stability in rat plasma assessed as half life; assay type: ADME, cell-free
[12] = Elimination rate constant in Wistar rat at 3 mg/kg, ip measured upto 24 hrs by HPLC-MS/MS method; assay type: ADME, organism-based; conditions: in vivo
[13] = biological target: Sigma intracellular receptor 2 (Homo sapiens, UniProt Q5BJF2); test: Binding affinity to sigma 2 receptor (unknown origin)
Sequence of Sigma intracellular receptor 2 (Q5BJF2 whole entry): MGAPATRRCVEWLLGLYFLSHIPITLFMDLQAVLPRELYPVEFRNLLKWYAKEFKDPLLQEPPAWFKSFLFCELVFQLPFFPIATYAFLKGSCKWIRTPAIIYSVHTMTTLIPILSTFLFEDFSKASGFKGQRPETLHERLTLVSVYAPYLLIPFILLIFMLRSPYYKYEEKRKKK

[14] = Aqueous solubility of compound at pH 7.4; assay type: physicochemical; conditions: buffer
[15] = Microsomal stability in human liver microsomes assessed as half life; assay type: ADME, Microsome
[16] = Bioavailability in Wistar rat at 3 mg/kg, ip measured upto 24 hrs by HPLC-MS/MS method; assay type: ADME, organism-based; conditions: in vivo
[17] = Elimination rate constant in Wistar rat at 10 mg/kg, ip measured upto 24 hrs by HPLC-MS/MS method; assay type: ADME, organism-based; conditions: in vivo
Mus musculus [18] = test: Reversal of CCI-induced mechano-allodynia in mouse model of neuropathic pain at 10 umol/kg, ip after 2 hrs; assay type: functional, organism-based; conditions: dose 10.0 µmol/kg
[19] = Stability of compound in stimulated intestinal fluid assessed as half life; assay type: ADME; conditions: simulated gi fluid
[20] = AUC (0 to infinity) in Wistar rat at 1 mg/kg, ip measured upto 24 hrs by HPLC-MS/MS method; assay type: ADME, organism-based; design: route intraperitoneal, dose 1 mg/kg, time <=24; conditions: in vivo
[21] = Stability in mouse plasma assessed as half life; assay type: ADME, cell-free
[22] = biological target: Sigma non-opioid intracellular receptor 1 (Homo sapiens, UniProt Q99720); test: Binding affinity to sigma 1 receptor (unknown origin)
Sequence of Sigma non-opioid intracellular receptor 1 (Q99720 whole entry): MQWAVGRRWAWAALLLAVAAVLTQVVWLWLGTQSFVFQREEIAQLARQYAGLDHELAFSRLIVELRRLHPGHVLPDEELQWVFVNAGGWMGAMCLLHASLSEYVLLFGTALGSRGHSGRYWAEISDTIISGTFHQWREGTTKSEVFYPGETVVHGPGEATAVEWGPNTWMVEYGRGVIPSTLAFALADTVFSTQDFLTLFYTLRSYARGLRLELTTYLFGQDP

[23] = Microsomal stability in rat liver microsomes assessed as half life; assay type: ADME, Microsome
[24] = Bioavailability in Wistar rat at 0.5 mg/kg, iv measured upto 24 hrs by HPLC-MS/MS method; assay type: ADME, organism-based; conditions: in vivo
HepG2 = test: Cytotoxicity against human HepG2 cells; assay type: cell-based
[25] = Bioavailability in Wistar rat at 1 mg/kg, ip measured upto 24 hrs by HPLC-MS/MS method; assay type: ADME, organism-based; conditions: in vivo

O=C(O)c1cc(-c2ccc(-c3cc(CO)on3)cc2)c2ccc(-c3ccc(C(F)(F)F)cc3)cc2c1
Activity [1]: Non-Toxic | t1/2 [2]: > 4 h | t1/2 [3]: 2.68 h | CL/F [4]: 33.8 mL/min/kg | CL/F [5]: 23.8 mL/min/kg | CL/F [6]: 23.7 mL/min/kg | Ki (Translocator protein): 4.63 µM | k el at 24 h [7]: 2.67e-05 s⁻¹ | F [8]: 105% | k el at 24 h [9]: 0.000281 s⁻¹ | Activity (Mus musculus [10]): inactive | t1/2 [11]: > 4 h | k el at 24 h [12]: 4.11e-05 s⁻¹ | Ki [13]: 4.78 µM | solubility [14]: 2.43 ug ml-1 and 4.96 uM | t1/2 [15]: > 4 h | F [16]: 147% | k el at 24 h [17]: 6.47e-05 s⁻¹ | Activity (Mus musculus [18]): inactive | t1/2 [19]: > 4 h | AUC [20]: 700 ng·h/mL | t1/2 [21]: > 4 h | Ki [22]: 2.68 µM | t1/2 [23]: 0.795 h | F [24]: 100% | IC50 (HepG2): 8.47 µM | F [25]: 139%
